Assay results from BindingDB's records for doi:10.1016/j.bmc.2010.11.049 (Bryn Mawr College, 2011).

Test: Inhibition of HIV1 YU2 gp120 binding to CD4 expressing Cf2Th-CD4/CCR5 cells assessed as inhibition of viral infection after 48 hrs

Row | SMILES | IC50 [µM]
1 | O=C(Nc1ccc(Cl)c(F)c1)C(=O)Nc1cnn2c1NCCC2 [N1-(4-chloro-3-fluorophenyl)-N2-(4,5,6,7-tetrahydropyrazolo[1,5-a]pyrimidin-3-yl)oxalamide] | > 100
2 | CNS(=O)(=O)Cc1ccc(CNC(=O)C(=O)Nc2ccc(Cl)c(F)c2)cc1 [N1-(4-chloro-3-fluorophenyl)-N2-(4-(N-methylsulfamoylmethyl)benzyl)oxalamide] | > 100
3 | CNC(=O)c1ccc(CNC(=O)C(=O)Nc2ccc(Cl)c(F)c2)cc1 [N1-(4-chloro-3-fluorophenyl)-N2-(4-(methylcarbamoyl)benzyl)oxalamide] | > 100
4 | O=C(Nc1ccc(Cl)c(F)c1)C(=O)NC1CCNC2(CCC2)C1 (stereo not drawn) [N1-(4-chloro-3-fluorophenyl)-N2-(5-azaspiro[3.5]nonan-8-yl)oxalamide] | 38.5
5 | O=C(NCC1NCCc2ccccc21)C(=O)Nc1ccc(Cl)c(F)c1 (stereo not drawn) [N1-(4-chloro-3-fluorophenyl)-N2-((1,2,3,4-tetrahydroisoquinolin-1-yl)methyl)oxalamide] | 50.4
6 | O=C(NCc1[nH]nc2c1CCCCC2)C(=O)Nc1ccc(Cl)c(F)c1 [N1-(4-chloro-3-fluorophenyl)-N2-((1,4,5,6,7,8-hexahydrocyclohepta[c]pyrazol-3-yl)methyl)oxalamide] | > 100
7 | O=C(NCC1CCCN(CCO)C1)C(=O)Nc1ccc(Cl)c(F)c1 (stereo not drawn) [N1-(4-chloro-3-fluorophenyl)-N2-((1-(2-hydroxyethyl)piperidin-3-yl)methyl)oxalamide] | 27.6
8 | O=C(NCC1CCN(CCN2CCOCC2)C1)C(=O)Nc1ccc(Cl)c(F)c1 (stereo not drawn) [N1-(4-chloro-3-fluorophenyl)-N2-((1-(2-morpholinoethyl)pyrrolidin-3-yl)methyl)oxalamide] | > 100
9 | CCN1CCCC1CNC(=O)C(=O)Nc1ccc(Cl)c(F)c1 (stereo not drawn) [N1-(4-chloro-3-fluorophenyl)-N2-((1-ethylpyrrolidin-2-yl)methyl)oxalamide] | 85.2
10 | CN1CCCC(CNC(=O)C(=O)Nc2ccc(Cl)c(F)c2)C1 (stereo not drawn) [N1-(4-chloro-3-fluorophenyl)-N2-((1-methylpiperidin-3-yl)methyl)oxalamide] | > 100
11 | CN1CCC(CNC(=O)C(=O)Nc2ccc(Cl)c(F)c2)CC1 [N1-(4-chloro-3-fluorophenyl)-N2-((1-methylpiperidin-4-yl)methyl)oxalamide] | > 100
12 | CC1(C)CC(CNC(=O)C(=O)Nc2ccc(Cl)c(F)c2)CC(C)(C)N1 [N1-(4-chloro-3-fluorophenyl)-N2-((2,2,6,6-tetramethylpiperidin-4-yl)methyl)oxalamide] | 33
13 | Cc1n[nH]c(C)c1CNC(=O)C(=O)Nc1ccc(Cl)c(F)c1 [N1-(4-chloro-3-fluorophenyl)-N2-((3,5-dimethyl-1H-pyrazol-4-yl)methyl)oxalamide] | 64.5
14 | CN1CCC(CNC(=O)C(=O)Nc2ccc(Cl)c(F)c2)(N(C)C)CC1 [N1-(4-chloro-3-fluorophenyl)-N2-((4-(dimethylamino)-1-methylpiperidin-4-yl)methyl)oxalamide] | > 100
15 | O=C(NC[C@@H]1CCCN2CCCC[C@H]12)C(=O)Nc1ccc(Cl)c(F)c1 [N1-(4-chloro-3-fluorophenyl)-N2-(((1S,9aR)-octahydro-1H-quinolizin-1-yl)methyl)oxalamide] | > 100
16 | O=C(NC[C@@]12CCC[C@@H]1CNC2)C(=O)Nc1ccc(Cl)c(F)c1 [N1-(4-chloro-3-fluorophenyl)-N2-(((3aS,6aS)-octahydrocyclopenta[c]pyrrol-3a-yl)methyl)oxalamide] | 68.3
17 | O=C(NCC1CCNCC1)C(=O)Nc1ccc(Cl)c(F)c1 [N1-(4-chloro-3-fluorophenyl)-N2-(piperidin-4-ylmethyl)oxalamide] | > 100
18 | CN(C(=O)C(=O)Nc1ccc(Cl)c(F)c1)C1CC(C)(C)NC(C)(C)C1 [N1-(4-chloro-3-fluorophenyl)-N2-methyl-N2-(2,2,6,6-tetramethylpiperidin-4-yl)oxalamide] | > 100
19 | CC(C)Oc1cc(NC(=O)C(=O)NC2CC(C)(C)NC(C)(C)C2)ccc1Cl [N1-(4-chloro-3-isopropoxyphenyl)-N2-(2,2,6,6-tetramethylpiperidin-4-yl)oxalamide] | > 100
20 | COc1cc(NC(=O)C(=O)NC2CC(C)(C)NC(C)(C)C2)ccc1Cl [N1-(4-chloro-3-methoxyphenyl)-N2-(2,2,6,6-tetramethylpiperidin-4-yl)oxalamide] | > 100
21 | CN(C(=O)C(=O)NC1CC(C)(C)NC(C)(C)C1)c1ccc(Cl)cc1 [N1-(4-chlorophenyl)-N1-methyl-N2-(2,2,6,6-tetramethylpiperidin-4-yl)oxalamide] | > 100
22 | COc1cccc(CNC(=O)C(=O)Nc2ccc(Cl)cc2)c1 [N1-(4-chlorophenyl)-N2-(3-methoxybenzyl)oxalamide] | > 100
23 | COc1cccc(NC(=O)C(=O)Nc2ccc(Cl)cc2)c1 [N1-(4-chlorophenyl)-N2-(3-methoxyphenyl)oxalamide] | > 100
24 | CCN1CCCC1CNC(=O)C(=O)Nc1ccc(Cl)cc1 (stereo not drawn) [N1-(4-chlorophenyl)-N2-((1-ethylpyrrolidin-2-yl)methyl)oxalamide] | 58.6

Row | SMILES | IC50 [µM]
25 | Nc1ncc(CNC(=O)C(=O)Nc2ccc(Cl)c(F)c2)cn1 [N1-((2-aminopyrimidin-5-yl)methyl)-N2-(4-chloro-3-fluorophenyl)oxalamide] | > 100
26 | CC(C)(C)c1cc(CNC(=O)C(=O)Nc2ccc(Cl)c(F)c2)[nH]n1 [N1-((5-tert-butyl-1H-pyrazol-3-yl)methyl)-N2-(4-chloro-3-fluorophenyl)oxalamide] | > 100
27 | CC1(C)O[C@@H](CN)[C@H](CNC(=O)C(=O)Nc2ccc(Cl)c(F)c2)O1 [N1-(((4S,5S)-5-(aminomethyl)-2,2-dimethyl-1,3-dioxolan-4-yl)methyl)-N2-(4-chloro-3-fluorophenyl)oxalamide] | 76.6
28 | O=C(NCc1ccc2c(c1)OCO2)C(=O)Nc1ccc(Br)cc1 [N1-(benzo[d][1,3]dioxol-5-ylmethyl)-N2-(4-bromophenyl)oxalamide] | > 100
29 | CC1(C)CC(NC(=O)C(=O)Nc2ccc3ccccc3c2)CC(C)(C)N1 [N1-(naphthalen-2-yl)-N2-(2,2,6,6-tetramethylpiperidin-4-yl)oxalamide] | > 100
30 | Cc1cc(NC(=O)C(=O)c2c[nH]c3ccccc23)ccc1Br [N-(4-bromo-3-methylphenyl)-2-(1H-indol-3-yl)-2-oxoacetamide] | > 100
31 | O=C(CSCc1cc(=O)[nH][nH]1)Nc1ccc(Br)cc1 [N-(4-bromophenyl)-2-((5-hydroxy-1H-pyrazol-3-yl)methylthio)acetamide] | > 100
32 | Cc1nn(C)cc1CN(C)CC(=O)Nc1ccc(Br)cc1 [N-(4-bromophenyl)-2-(((1,3-dimethyl-1H-pyrazol-4-yl)methyl)(methyl)amino)acetamide] | > 100
33 | CC(CC(=O)Nc1ccc(Br)cc1)Nc1cccc(CO)c1 (stereo not drawn) [N-(4-bromophenyl)-3-(3-(hydroxymethyl)phenylamino)butanamide] | > 100
34 | CC1CCCN(CCC(=O)Nc2ccc(Br)cc2)C1 (stereo not drawn) [N-(4-bromophenyl)-3-(3-methylpiperidin-1-yl)propanamide] | > 100
35 | O=C(Nc1ccc(Br)cc1)c1cc(CN2CCCC2)on1 [N-(4-bromophenyl)-5-(pyrrolidin-1-ylmethyl)isoxazole-3-carboxamide] | > 100
36 | CC1(C)CC(NCC(=O)Nc2ccc(Cl)c(F)c2)CC(C)(C)N1 [N-(4-chloro-3-fluorophenyl)-2-(2,2,6,6-tetramethylpiperidin-4-ylamino)acetamide] | > 100
37 | O=C(Nc1ccc(Cl)cc1)C(=O)c1c[nH]c2ccccc12 [N-(4-chlorophenyl)-2-(1H-indol-3-yl)-2-oxoacetamide] | > 100
38 | Cc1ccc(C(C)C)c(OCC(=O)NNC(=O)Nc2ccc(Cl)cc2)c1 [N-(4-chlorophenyl)-2-(2-(2-isopropyl-5-methylphenoxy)acetyl)hydrazinecarboxamide] | > 100
39 | O=C(CSc1[nH]c(=O)nc2c1CCCC2)Nc1ccc(Cl)cc1 [N-(4-chlorophenyl)-2-(2-oxo-1,2,5,6,7,8-hexahydroquinazolin-4-ylthio)acetamide] | > 100
40 | Cc1cc(SCC(=O)Nc2ccc(Cl)cc2)[nH]c(=O)n1 [N-(4-chlorophenyl)-2-(6-methyl-2-oxo-1,2-dihydropyrimidin-4-ylthio)acetamide] | > 100
41 | O=C(Nc1ccc(Cl)cc1)c1cc2c([nH]c1=O)CCCC2 [N-(4-chlorophenyl)-2-oxo-1,2,5,6,7,8-hexahydroquinoline-3-carboxamide] | > 100
42 | Cc1cccc(-c2cc(C(=O)Nc3ccc(Cl)cc3)[nH]n2)c1O [N-(4-chlorophenyl)-5-(2-hydroxy-3-methylphenyl)-1H-pyrazole-3-carboxamide] | > 100
43 | O=C(Nc1ccc(Cl)cc1)c1cc(-n2cnnc2)n[nH]1 [N-(4-chlorophenyl)-5-(4H-1,2,4-triazol-4-yl)-1H-pyrazole-3-carboxamide] | > 100
44 | CC1(C)CC(=O)c2cc(C(=O)Nc3ccc(Cl)cc3)c(=O)[nH]c2C1 [N-(4-chlorophenyl)-7,7-dimethyl-2,5-dioxo-1,2,5,6,7,8-hexahydroquinoline-3-carboxamide] | > 100
45 | N=c1oc2cc(O)ccc2cc1C(=O)Nc1ccc(Cl)cc1 [N-(4-chlorophenyl)-7-hydroxy-2-imino-2H-chromene-3-carboxamide] | > 100
46 | Cc1cc(OCC(=O)NCc2nnc[nH]2)ccc1Cl [N-((1H-1,2,4-triazol-3-yl)methyl)-2-(4-chloro-3-methylphenoxy)acetamide] | > 100
47 | NC(=O)C1CCN(CCC(=O)Nc2ccc(Br)cc2)CC1 [cis-1-(3-(4-bromophenylamino)-3-oxopropyl)-4-carbamoylpiperidinium] | > 100
48 | CC(C)C1CCN(CCC(=O)Nc2ccc(Br)cc2)CC1 [trans-1-(3-(4-bromophenylamino)-3-oxopropyl)-4-isopropylpiperidinium] | > 100
